Source: patent publication US10555926B2, “Use of cabazitaxel in the treatment of prostate cancer” (Erasmus University Medical Center Rotterdam, priority 2015, dated 2020)
Read-outs that look alike come from different tables or passages of the source.

Tests used:
[1] = tested on: castration resistant prostate cancer (CRPC) patients; conditions: in combination with prednisone; first-line chemotherapy; cited from earlier work
mCRPC patients [2] = experiment: PSA response to cabazitaxel (after 12 weeks and best response at end of treatment); assay type: in vivo, human; conditions: for Best PSA response: No (number of patients) / Best PSA response: ≥50% (number of patients) / Best PSA response: ≥30% (number of patients): end of treatment; for Best PSA response: ≥30% (number of patients) / PSA response after 12 weeks: ≥30% (number of patients): includes patients with ≥50% PSA response
Source text: Sequential PSA levels during cabazitaxel for evaluation of PSA response after 12 weeks and maximal PSA response at the end of treatment were available from […]. Five (17%) and three patients (10%) achieved a ≥30% and ≥50% PSA response, respectively, after 12 weeks of treatment. At the end of treatment, the best PSA response was ≥30% in seven patients (24%) and ≥50% in three patients (10%). The differences between 30% and 50% PSA-RR after 12 weeks and at the end of treatment between patients with and without AR-V7 in CTCs were not statistically significant (Table 4, FIG. 2). Prior abiraterone acetate treatment had no influence on CTC-RR and PSA-RR during cabazitaxel treatment.

CTCs of mCRPC patients = experiment: CTC response to cabazitaxel after two cycles (CABARESC side-study); assay type: in vivo, human; conditions: for CTC response: No (number of patients): 25 mg/m^2; for CTC response: Yes (number of patients): decrease from ≥10 to <5 CTCs/7.5 mL
Procedure: Blood was drawn by venipuncture before start of the first and the third cycle of cabazitaxel. Enumeration of CTCs was carried out as described in detail before (Sieuwerts et al., 2009. Breast Cancer Res Treat 118:455-68; Sieuwerts et al., 2011. Clin Cancer Res 17:3600-18). Briefly, CTCs were enumerated from 7.5 mL of blood drawn into a CellSave Preservative tube (Janssen Diagnostics). Blood samples were processed within 96 hours using the Epithelial Cell Kit on the CellSearch System (both Janssen Diagnostics). In this system, epithelial cells are immunomagnetically enriched from whole blood using anti-EpCAM antibodies loaded with ferrofluid nanoparticles. Enriched cells are stained with the nuclear dye 4′,6-diamidino-2-phenylindole (DAPI), anti-cytokeratin 8/18/19 labeled with phycoerythrin (PE), and anti-CD45 labeled with allophycocyanin (APC), followed by scanning using the CellTracks Analyzer (Janssen Diagnostics). All cells ≥4 μm, with round-to-oval morphology, positive for cytokeratin and DAPI, with at least 50% overlap in the DAPI and cytokeratin signal, and negative for CD45 were considered CTCs. All samples were analyzed by two independent, trained reviewers.
From 25 patients a secondary CTC sample was available; in three patients the second draw was missed and one patient died after the second cycle because of a non-disease related event. Of these 25 patients, 15 were AR-V7-positive and 10 were AR-V7-negative. […] The CTC-RRs in both AR-V7-positive and AR-V7-negative patient groups were 20% (Table 4).

mCRPC patients [3] = experiment: Overall survival under cabazitaxel treatment
Procedure: Primary endpoint of this study was the CTC response rate (RR) to cabazitaxel, defined as a decrease from ≥10 CTC to <5/7.5 ml of blood after two treatment cycles.
Applied statistical tests were the X^2 test for differences between categorical variables, the Student's t test for normally distributed and the Mann-Whitney U test for other continuous variables. Correlations were tested by Pearson or the non-parametric Spearman's test, depending on the distribution. Survival was visualized using Kaplan Meier plots and differences were calculated through Log-rank testing. All statistical tests were two-sided. A P-value <0.05 was considered statistically significant.

mCRPC patients [4] = conditions: cited from earlier work
[5] = all patients, after 12 weeks of treatment
[6] = all patients, at the end of treatment
[7] = patients with AR-V7 transcripts in their CTCs

## CC(=O)O[C@@]12CO[C@@H]1C[C@H](O)[C@@]1(C)C(=O)[C@H](O)C3=C(C)[C@@H](OC(=O)[C@H](O)[C@@H](NC(=O)OC(C)(C)C)c4ccccc4)C[C@@](O)([C@@H](OC(=O)c4ccccc4)[C@H]21)C3(C)C [docetaxel]
[1]
  survival benefit: 2.4 months

## CO[C@H]1C(=O)[C@]2(C)[C@@H](OC)C[C@H]3OC[C@@]3(OC(C)=O)[C@H]2[C@H](OC(=O)c2ccccc2)[C@]2(O)C[C@H](OC(=O)[C@H](O)[C@@H](NC(=O)OC(C)(C)C)c3ccccc3)C(C)=C1C2(C)C [cabazitaxel, 4a-acetoxy-2a-benzoyloxy-5,20-epoxy-1-hydroxy-7,10-dimethoxy-9-oxo-1 1-taxen-13a-yl (2R,3S)-3-fert-butoxycarbonylamino-2-hydroxy-3-phenylpropionate]
mCRPC patients [2]; AR-V7 in CTCs at baseline: No
  PSA response after 12 weeks: No (number of patients): 9
  PSA response after 12 weeks: ≥50% (number of patients): 2
  Best PSA response: No (number of patients): 7
  Best PSA response: ≥50% (number of patients): 2
  Best PSA response: ≥30% (number of patients): 4
  PSA response after 12 weeks: ≥30% (number of patients): 3
mCRPC patients [2]; AR-V7 in CTCs at baseline: Yes
  PSA response after 12 weeks: No (number of patients): 12
  PSA response after 12 weeks: ≥50% (number of patients): 1
  Best PSA response: No (number of patients): 12
  Best PSA response: ≥50% (number of patients): 1
  Best PSA response: ≥30% (number of patients): 3
  PSA response after 12 weeks: ≥30% (number of patients): 2
mCRPC patients [2]; [5]
  ≥30% PSA response (share of patients): 17%
  ≥50% PSA response (share of patients): 10%
mCRPC patients [2]; [6]
  best PSA response ≥30% (share of patients): 24%
  best PSA response ≥50% (share of patients): 10%
CTCs of mCRPC patients; AR-V7-negative patient group
  CTC-RR: 20%
CTCs of mCRPC patients; AR-V7-positive patient group
  CTC-RR: 20%
CTCs of mCRPC patients; AR-V7 in CTCs at baseline: No
  CTC response: No (number of patients): 8
  CTC response: Yes (number of patients): 2
CTCs of mCRPC patients; AR-V7 in CTCs at baseline: Yes
  CTC response: No (number of patients): 12
  CTC response: Yes (number of patients): 3
CTCs of mCRPC patients; all 25 patients with a second CTC sample
  CTC response to cabazitaxel (share of patients): 20%
mCRPC patients [3]; all patients (28 available)
  Median OS: 9.5 (95% CI 5.8-13.2) months
mCRPC patients [3]; patients with AR-V7 in CTCs at baseline
  Median OS: 9.5 (95% CI 4.5-14.5) months
mCRPC patients [3]; patients without AR-V7 in CTCs at baseline
  Median OS: 7.7 (95% CI 3.3-12.1) months

## CNC(=O)c1ccc(N2C(=S)N(c3ccc(C#N)c(C(F)(F)F)c3)C(=O)C2(C)C)cc1F [enzalutamide]
mCRPC patients [4]; [7]
  patients who responded: none
mCRPC patients [4]; patients without AR-V7
  patients who responded: 53%

## CC(=O)O[C@H]1CC[C@@]2(C)C(=CC[C@@H]3[C@@H]2CC[C@]2(C)C(c4cccnc4)=CC[C@@H]32)C1 [abiraterone acetate]
mCRPC patients [4]; [7]
  patients who responded: none
mCRPC patients [4]; patients without AR-V7
  patients who responded: 68%
